Reference: patent US20170333388A1, “Therapeutic compound and its application in repairing diabetes-related cardiac injuries” (Numen Biotech Co., Ltd, priority 2016, published 2017)

Assays:
Assay type in all cases: cell-based, rat
[1] = test system: adipose-derived stem cells (ADSC); assay: transwell migration assay of ADSC in high glucose medium
Description: The stem cells were divided into five different groups, which were: Group 1: stem cell group, Group 2: high glucose destroyed stem cell group, Group 3: EGCG (2.5 μM in concentration) precondition high glucose destroyed stem cell group, Group 4: EGCG (5 μM in concentration) precondition high glucose destroyed stem cell group, Group 5: EGCG (10 μM in concentration) precondition high glucose destroyed stem cell group. […] The migration ability of the five groups was: 63±10, 36±7, 55±5, 84±6 and 144±4, respectively. In comparison with the normal stem cell group (Group 1), the migration ability of the stem cells cultured in high glucose medium was decreased (Group 1>Group 2, p<0.05). In contrast, in comparison to the high glucose destroyed stem cells, the migration ability of stem cells was recovered under different EGCG concentration precondition (Group 2<Group 3, p<0.05; Group 2<Group 4, p<0.001; Group 2<Group 5, p<0.001). Then the migration ability of stem cells under different experiment conditions was tested. The more numbers of stem cells represents the stem cells have stronger migration ability under this experiment condition.
During the analysis of protein expression level, the EGCG induced expression level of CXCR4 and p-Akt increase would be eliminated by siRNA CXCR4. […] The stem cells were divided into six groups in this test, which were: Group 1: stem cell group, Group 2: high glucose destroyed stem cell group, Group 3: EGCG (10 μM in concentration) precondition high glucose destroyed stem cell group, Group 4: siRNA CXCR4 (3 nM) was added in Group 3, Group 5: CXCR4 siRNA (10 nM) was added into Group 4. The numbers of migrated stem cells were 288±25, 36±7, 159±17, 84±6, 41±8 and 40±2 respectively.

[2] = test system: adipose-derived stem cells (ADSC); assay: Western blot of protein expression in ADSC preconditioned with EGCG
Description: After the drug treatment, the culture medium was removed from the cells and rinsed with PBS buffer for three times; then 1 mL PBS was used to scrape the cells from the dish and the cells containing solution was placed in a centrifuge tube, and the solution was centrifuged by 12,000 rpm for 10 minutes, then the supernatant was removed, and the lysis buffer (50 mM Tris pH 7.5,0.5 M NaCl, 1.0 mM EDTA pH 7.5,1 mM BME, 1% NP40,10% glycerol, protease inhibitor cocktail table) was added and mixed. The mixture was placed on ice and shock once every 5 minutes for 30 minutes, and then the mixture was centrifuged at 12,000 g in 4° C. for 10 minutes, the upper layer was placed in a new tube to measure the protein concentration.
After the drug treatment, the culture medium was removed from the cells and rinsed with PBS buffer for three times; then 1 mL PBS was used to scrape the cells from the dish and the cells containing solution was placed in a centrifuge tube, and the solution was centrifuged by 12,000 rpm for 10 minutes then the supernatant was removed and extraction buffer (50 mM Tris pH 7.5-0.5 M NaCl-1.0 mM EDTA pH 7.5-10% glycerol-protease inhibitor cocktail table) was added into the mill tube, then grinded on ice. And the homogenate was then placed in a new centrifuge tube to centrifuge at 4° C. by 12,000 rpm for 10 minutes, the upper layer was placed in a new centrifuge tube for measuring the protein concentration.
[…] protein samples were added into a PBS solution, and 5× loading dye was added then mixed evenly and boiled for 10 minutes, then analyze by SDS-polyacrylamide slab gel electrophoresis. The upper layer of the SDS-polyacrylamide gel electrophoresis was 3.75% Stacking gel, and the lower layer was 5% and 12% Separating gel. The plastic plates was fixed to the electrophoresis apparatus and the electrophoresis buffer was filled into the electrophoresis tank, and then the treated protein sample was added into the U-shaped groove formed on a plastic plate, and undergo electrophoresis with 75 volts. […]

[3] = test system: adipose-derived stem cells (ADSC); assay: stem cell proliferation (colony) experiment in high glucose medium; conditions: high glucose destroyed stem cells (33 mM glucose)
Description: The adipose-derived stem cells were taken out from the abdominal adipose tissue of 8-month-old Wistar male rats via surgery. After cutting the adipose tissues into suitable sizes, the adipose tissues were washed by antibiotic containing saline. The washed adipose tissues were placed into a Type II collagenase (0.01%) containing saline, and were stirred and heated under 37° C. water bath for 1 hour. Then the adipose tissues were centrifuged by 3000 rpm under room temperature for 10 minute, the precipitants were extracted for cell culture in the culture dish.
In the aspect of stem cell proliferation experiment, the more the number of stem cell colonies in different experimental conditions represents for the better growth experiment condition for stem cells. The stem cells were divided into 5 different groups, which were: Group 1: stem cell group, Group 2: high glucose destroyed stem cell group, Group 3: EGCG (2.5 μM in concentration) precondition high glucose destroyed stem cell group, Group 4: EGCG (5 μM in concentration) precondition high glucose destroyed stem cell group, Group 5: EGCG (10 μM in concentration) precondition high glucose destroyed stem cell group. […] In comparison with the normal stem cell group (Group 1), the distribution of the stem cells colonies cultured in high glucose medium was inhibited (Group 1>Group 2, p<0.001). In contrast, in comparison to the high glucose destroyed stem cells, the stem cell colonies were recovered under different EGCG concentration precondition (Group 2<Group 3, p<0.05; Group 2<Group 4, p<0.05; Group 2<Group 5, p<0.01). Then the migration ability of stem cells under different experiment conditions was tested. The more numbers of stem cells represent the stem cells have stronger migration ability under this experiment condition.

[4] = EGCG precondition at different concentrations vs high glucose destroyed stem cells

`O=C(O[C@@H]1Cc2c(O)cc(O)cc2O[C@@H]1c1cc(O)c(O)c(O)c1)c1cc(O)c(O)c(O)c1` [EGCG, epigallocatechin gallate] was tested, and the “migration ability (numbers of migrated stem cells)” value (“migration ability” below) ([1]; FIG. 4, EGCG 2.5 μM precondition) was 55±5, the “migration ability” value ([1]; FIG. 4, EGCG 5 μM precondition) was 84±6 and the “migration ability” value ([1]; FIG. 4, EGCG 10 μM precondition) was 144±4. For the same compound, the “numbers of migrated stem cells” value ([1]; FIG. 7, Group 3: EGCG 10 μM precondition) was 159±17, the “numbers of migrated stem cells” value ([1]; FIG. 7, Group 4: EGCG 10 μM precondition, siRNA CXCR4 3 nM added) was 84±6 and the “numbers of migrated stem cells” value ([1]; FIG. 7, Group 5: EGCG 10 μM precondition, CXCR4 siRNA 10 nM added) was 41±8. For the same compound, the “apoptosis protein cytochrome-C expression level” value [2, 4] was “decreased”, the “migration protein (CXCR4) expression level” value [2, 4] was “recovered” and the “EGCG induced increase of CXCR4 and p-Akt expression level” value ([2]; FIG. 6, in the presence of siRNA CXCR4) was “eliminated”. For the same compound, the stem cell colonies ([3]; EGCG 2.5 μM precondition) was 152±17, the stem cell colonies ([3]; EGCG 5 μM precondition) was 178±22 and the stem cell colonies ([3]; EGCG 10 μM precondition) was 226±31.
